Like-named read-outs stand apart in the source and are kept apart here.
Key:
[1] = molecular target: T1, mouse TGR5 receptor (Mus musculus, UniProt Q80SS6); experiment: Mouse TGR5 cAMP production assay (luminescent, DiscoveRx cAMP XS+); type: cell-based; settings: HEK293-EBNA cells overexpressing mouse TGR5, luminescent cAMP XS+; coded A-D; read-out: Mouse TGR5 Lum. cAMP Activity (EC50)
T1 construct: expressed in transfected cells; host or cells: HEK293-EBNA (293 c18, ATCC CRL10852), Hygromycin B selection
T1 sequence (Q80SS6 1-329): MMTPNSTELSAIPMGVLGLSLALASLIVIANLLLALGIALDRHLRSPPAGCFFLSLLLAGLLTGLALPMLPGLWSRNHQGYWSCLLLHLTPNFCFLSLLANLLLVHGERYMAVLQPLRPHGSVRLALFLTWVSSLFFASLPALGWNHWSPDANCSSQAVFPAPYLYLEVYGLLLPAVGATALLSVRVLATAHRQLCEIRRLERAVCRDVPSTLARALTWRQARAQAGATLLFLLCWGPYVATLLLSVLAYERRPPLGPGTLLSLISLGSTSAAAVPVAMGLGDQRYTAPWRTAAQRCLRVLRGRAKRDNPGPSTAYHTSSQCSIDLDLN
In short: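 HEK293-EBNA cells stably expressing mouse TGR5 were suspended in serum-free DMEM with 500 μM IBMX and preincubated 20 min with cAMP antibody. They were then exposed to half-log compound dilutions for 1 h at room temperature. cAMP measured by enzyme-fragment complementation luminescence after overnight incubation; EC50 derived.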

[2] = Portal vein versus systemic pharmacokinetics in hepatic portal vein cannulated rats; type: in vivo, rat; settings: portal vein cannulated male CD (SD) rats, 10 mg/kg oral; for Cmax / Tmax / AUC(0-t): rat; for AUC(0-t): read-out: AUC (0-7 h)
Method: Low Level of Compounds is Attributed to Low Intestinal Absorption
In this study, it was determined if the low plasma level of the compounds of the present invention is due to low absorption in the gut, or due to the first pass effect (i.e., absorption followed by a rapid degradation of compounds by liver). Hepatic portal vein cannulated male CD (SD) rats obtained from Charles River Laboratory were utilized. In brief, Compound 20BG was administered orally at 10 mg/kg, and blood was obtained simultaneously from the portal vein and systemic circulation (retro-orbital sinus) at pre-dose, 0.25, 0.5, 1, 2, and 4 hours post-dose, in EDTA coated tubes. The samples were processed into plasma and quantification of compound levels in the plasma was accomplished by means of LC-MS/MS analysis as described in Example 59.

[3] = tested on: DIO mice; experiment: Weight loss after multiple days of dosing in DIO mice; type: in vivo, mouse; settings: DIO mice on high fat diet, oral BID for 12 days
Method: Monitoring of Weight Loss after Multiple Days of Dosing Compounds
Compounds of the present invention were dosed for multiple days and were evaluated for their ability to cause mice to lose weight. In the next series of studies (Examples 66-70), Male DIO mice were received at 12 weeks of age (from Taconic), and were single-housed at the testing facility and acclimated for at least 2 weeks. The mice were provided a high fat diet [Research Diet D12492 (60% Fat kcal)] while in the testing facility. Before the study initiation, the animals were randomized into 5 experimental groups by body weight. The vehicle group contained only 0.5% carboxymethylcellulose (medium viscosity)+0.25% Tween-80. The second group contained 10 mg/kg of the DPP-IV inhibitor Linagliptin while the third group contained 10 mg/kg Compound 20BG. The fourth group contained the combination of 10 mg/kg Linagliptin and 10 mg/kg Compound 20BG. The fifth group was the positive control for weight loss, Liraglutide. All mice, except the Liraglutide group, were dosed BID at approximately 6:00 am and again at approximately […]. The positive control liraglutide was administered at a dose of 0.2 mg/kg subcutaneously in the afternoon.
Compounds of the present invention were evaluated for their ability to cause mice to lose weight. Mice were dosed compounds for 12 days and body weights were recorded twice a week.

[4] = tested on: DIO mice; experiment: Food intake after multiple days of dosing in DIO mice; type: in vivo, mouse; settings: DIO mice on high fat diet, oral BID for 12 days
Method: Monitoring of Food Intake after Multiple Days of Dosing Compounds
Compounds of the present invention were dosed for multiple days and were evaluated for their ability to cause mice to have a lower food intake. Mice were dosed compounds for 12 days as per the protocol in Example 66.
The HFD (Research Diets, D12492, 60% fat kcal) is placed at the bottom of the cage of a singly-housed animal. The remaining food in each cage is recovered and weighed again at the same time of day 3 or 4 days later. The difference in the starting and ending food weight represents the amount of food consumed. Daily food intake is calculated by averaging over a 3 or 4 day period every week.

[5] = Bile weight after multiple days of dosing in DIO mice; type: in vivo, mouse; settings: 12 days of dosing, about 6 h after final dose
Method: No Bile Weight Increase after Multiple Days of Dosing Compounds
Compounds of the present invention were dosed for multiple days and evaluated for an increase in bile weight within the gallbladder. In this example, the protocol from Example 66 was utilized. In week 2 of the study, mice were euthanized and bile was removed from the gallbladder about 6 hours after the final dose and the bile was weighed to approximate the volume of bile contained within the bladder.

[6] = portal vein plasma, Portal Vein bleed
[7] = systemic plasma (retro-orbital sinus), Peripheral bleed (retro-orbital sinus)

SMILES	EC50 [1] [nM]	absorption (PK in portal vein and systemic circulation) [2]	Cmax [2, 6] [ng/mL]	Tmax [2, 6] [min]	AUC(0-t) [2, 6] [ng·h/mL]	Cmax [2, 7] [ng/mL]	Tmax [2, 7] [min]	AUC(0-t) [2, 7] [ng·h/mL]	body weight change [3]	food intake [4]	bile weight / gallbladder size [5]
CCc1cnccc1-c1cccc(C(C)(C)NS(=O)(=O)c2ccccc2C(F)(F)F)c1 [Compound 5, N-(2-(3-(3-ethylpyridin-4-yl)phenyl)propan-2-yl)-2-(trifluoromethyl)benzenesulfonamide]	< 100										
Cc1cnccc1-c1cccc(C(C)(C)NS(=O)(=O)c2cccc(C(F)(F)F)c2)c1 [Compound 5AA, N-(2-(3-(3-methylpyridin-4-yl)phenyl)propan-2-yl)-3-(trifluoromethyl)benzenesulfonamide]	< 100										
CCc1cnccc1-c1cccc([C@H](C)N(CCCC(=O)NCCS(=O)(=O)NCC(=O)O)S(=O)(=O)c2ccccc2C(F)(F)F)c1 [Compound 20BG]		very low absorption	7.6 ± 3.6	15 to 120	30.1 ± 0.9	1.3 ± 0.7	15 to 60	3.1 ± 10.8	modest weight loss	no significant effect	does not show an increase
